{
  "source": "patent US20040048892A1",
  "about": "“Treatment of diseases with adamantane derivatives” (priority 2000, published 2004)",
  "key": {"[1]": {"tested_on": "inhibitory postsynaptic currents (IPSC) in outer hair cells (OHCs)", "assay": "Patch-clamp recording of inhibitory postsynaptic currents (IPSC) in outer hair cells", "assay_type": "cell-based, Wistar rats", "experimental": "(§1) The apical turn of the organ of Corti was dissected from cochleae of three to six week old Wistar rats as described previously (Oliver et al., 1999, J Physiol (Lond) 519, 791-800; Oliver et al., 2000, Neuron 26, 595-601). The preparation was performed in a solution containing (in mM) 144 NaCl, 5.8 KCl, 0.1 CaCl2, 2.1 MgCl2, 10 HEPES, 0.7 Na2HPO4, 5.6 glucose, pH adjusted to 7.3 with NaOH. For recordings, OHCs located between half and one turn from the apex of the cochlea were chosen. If necessary, supporting cells were removed with gentle suction from a cleaning pipette carefully avoiding mechanical disturbance of the efferent nerve terminals.\nWhole-cell patch-clamp recordings were performed with an Axopatch 200B amplifier (Axon Instruments, Foster City, Calif.) at room temperature (22-25° C.). Electrodes were pulled from quartz glass, had resistances of 2-3 MΩ and were filled with intracellular solution (in mM): 135 KCl, 3.5 MgCl2, 0.1 CaCl2, 5 EGTA, 5 HEPES, 2.5 Na2ATP. For one series of experiments, an intracellular solution containing the Ca^2+-chelator BAPTA was used (in mM): 120 KCl, 3.5 MgCl2, 10 BAPTA, 5 HEPES, 2.5 Na2ATP. The pH of both solutions was adjusted to pH 7.3 with KOH. Membrane potential was corrected for the electrode junction potential (−4 mV). Whole-cell series resistance ranged from 4 to 9 MΩ and was not compensated. Currents were filtered at 1 kHz and sampled at 5 kHz. The specimen were continuously superfused with extracellular solution (in mM: 144 NaCl, 5.8 KCl, 2 CaCl2, 0.9 MgCl2, 10 HEPES, 0.7 Na2HPO4, 5.6 glucose, pH adjusted to 7.3 with NaOH). Chemicals as well as depolarizing solutions were applied via a glass capillary (diameter approximately 80 μm) positioned close to the organ of Corti. […]\nIn FIG. 1, postsynaptic currents were recorded from OHCs in voltage-clamp experiments when cells were held at −64 mV and the whole Corti preparation was superfused with high extracellular K^+ to depolarize the presynapse. […] This dose-dependent response determined for the IPSC in OHCs is illustrated in FIG. 1B."}, "[2]": {"molecular_target": "T1, nAChR-induced SK2 current (α9/α10 nAChR with SK2 channels) (Rattus norvegicus, UniProt P43144+Q9JLB5)", "T1 construct": "The coding region of the rat α10 gene; expressed in transfected cells; host or cells: Xenopus laevis oocytes (mRNA co-injection)", "T1 sequence (P43144 26-479)": "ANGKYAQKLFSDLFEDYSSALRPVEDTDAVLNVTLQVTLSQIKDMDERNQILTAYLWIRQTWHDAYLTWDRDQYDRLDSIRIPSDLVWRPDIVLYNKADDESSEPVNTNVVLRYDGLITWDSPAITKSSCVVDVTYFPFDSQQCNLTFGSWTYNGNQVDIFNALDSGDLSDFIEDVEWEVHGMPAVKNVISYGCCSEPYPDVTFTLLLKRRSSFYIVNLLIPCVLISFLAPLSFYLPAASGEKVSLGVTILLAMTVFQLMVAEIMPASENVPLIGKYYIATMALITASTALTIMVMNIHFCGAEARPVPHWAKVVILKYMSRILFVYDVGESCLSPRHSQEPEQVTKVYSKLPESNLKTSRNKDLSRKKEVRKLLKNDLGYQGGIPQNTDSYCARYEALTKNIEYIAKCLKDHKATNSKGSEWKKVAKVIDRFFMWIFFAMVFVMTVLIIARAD", "T1 sequence (Q9JLB5 25-447)": "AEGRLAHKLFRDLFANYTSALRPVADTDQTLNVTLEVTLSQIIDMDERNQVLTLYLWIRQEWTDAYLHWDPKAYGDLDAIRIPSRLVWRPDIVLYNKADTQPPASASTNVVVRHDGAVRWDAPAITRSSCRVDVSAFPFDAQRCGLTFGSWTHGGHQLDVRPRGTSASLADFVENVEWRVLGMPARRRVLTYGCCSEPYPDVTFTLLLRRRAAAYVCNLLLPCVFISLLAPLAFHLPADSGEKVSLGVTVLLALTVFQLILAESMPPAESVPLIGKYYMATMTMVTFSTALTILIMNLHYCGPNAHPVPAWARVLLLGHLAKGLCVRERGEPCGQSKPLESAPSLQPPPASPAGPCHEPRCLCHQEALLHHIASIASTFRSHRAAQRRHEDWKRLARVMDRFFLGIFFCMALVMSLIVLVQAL", "assay": "nAChR-induced SK2 current in oocytes coexpressing α9, α10 and SK2", "assay_type": "cell-based", "conditions": "−30 mV, 100 μM ACh", "experimental": "(§2) In vitro mRNA synthesis and oocyte injections were performed as previously described (Fakler et al., 1995, Cell 80, 149-154; Oliver et al., 2000, see above). The electrophysiology on oocytes was also as described previously (Oliver et al., 2000, see above). In detail, AChR subunits and SK2 channels were heterologously expressed in Xenopus oocytes. Oocytes were surgically removed from adult females and dissected manually. 4-5 day prior to electrophysiological recordings, Dumont stage VI oocytes were injected with about 50 ng RNA. For coexpression experiments, the total amount of RNA was kept constant and the different RNAs were coinjected in equal concentrations. Two-electrode voltage-clamp measurements were performed with a TurboTec 01C amplifier (npi, Tamm, Germany), using microelectrodes of 0.1 to 0.5 MΩ filled with 3 M KCl. Extracellular medium was CaNFR, containing (in mM): 120 KCl, 2.5 KCl, 2 CaCl2, 10 HEPES, pH adjusted to 7.3 with NaOH. For experiments in the absence of extracellular Ca^2+, the extracellular solution was MgNFR (in mM): 120 KCl, 2.5 KCl, 2 MgCl2, 10 HEPES, pH adjusted to 7.3 with NaOH. […]\n(A) Application of 100 μM ACh for the time indicated to an oocyte coexpressing α9, α10, and SK2. […] Peak outward currents were recorded at −30 mV and were normalized to the values preceding memantine application."}, "nAChR currents in OHCs": {"molecular_target": "T2, nAChR currents in OHCs (Rattus norvegicus, UniProt P43144+Q9JLB5)", "T2 construct": "Currents through nAChRs were recorded from an OHC; from tissue; host or cells: outer hair cells in the apical turn of the organ of Corti, Wistar rat", "T2 sequence (P43144 26-479)": "as the sequence (P43144 26-479) above", "T2 sequence (Q9JLB5 25-447)": "as the sequence (Q9JLB5 25-447) above", "assay": "Steady-state block of nAChR currents in OHCs (BAPTA intracellular solution)", "assay_type": "cell-based, Wistar rats", "conditions": "−94 mV, 200 μM ACh, 10 mM BAPTA", "experimental": "as §1\nWhole-cell patch-clamp recordings were performed with an Axopatch 200B amplifier (Axon Instruments, Foster City, Calif.) at room temperature (22-25° C.). Electrodes were pulled from quartz glass, had resistances of 2-3 MΩ and were filled with intracellular solution (in mM): 135 KCl, 3.5 MgCl2, 0.1 CaCl2, 5 EGTA, 5 HEPES, 2.5 Na2ATP. […]\n(A) Steady-state block of nAChR currents in OHCs by memantine. Currents through nAChRs were recorded from an OHC at a holding potential of −94 mV. […] (B) Dose-inhibition relation for memantine block of nAChR currents (squares), recorded from 4 OHCs as in (A). Steady-state amplitudes were normalized to the value recorded in the absence of memantine. […]"}, "α9/α10 nAChR": {"molecular_target": "T3, α9/α10 nAChR (Rattus norvegicus, UniProt P43144+Q9JLB5)", "T3 construct": "The coding region of the rat α10 gene; expressed in transfected cells; host or cells: Xenopus laevis oocytes (mRNA injection)", "T3 sequence (P43144 26-479)": "as the sequence (P43144 26-479) above", "T3 sequence (Q9JLB5 25-447)": "as the sequence (Q9JLB5 25-447) above", "assay": "Two-electrode voltage-clamp on α9/α10 nAChR expressed in Xenopus oocytes", "assay_type": "cell-based", "experimental": "In vitro mRNA synthesis and oocyte injections were performed as previously described (Fakler et al., 1995, Cell 80, 149-154; Oliver et al., 2000, see above). The electrophysiology on oocytes was also as described previously (Oliver et al., 2000, see above). In detail, AChR subunits and SK2 channels were heterologously expressed in Xenopus oocytes. Oocytes were surgically removed from adult females and dissected manually. 4-5 day prior to electrophysiological recordings, Dumont stage VI oocytes were injected with about 50 ng RNA. For coexpression experiments, the total amount of RNA was kept constant and the different RNAs were coinjected in equal concentrations. Two-electrode voltage-clamp measurements were performed with a TurboTec 01C amplifier (npi, Tamm, Germany), using microelectrodes of 0.1 to 0.5 MΩ filled with 3 M KCl. Extracellular medium was CaNFR, containing (in mM): 120 KCl, 2.5 KCl, 2 CaCl2, 10 HEPES, pH adjusted to 7.3 with NaOH. For experiments in the absence of extracellular Ca^2+, the extracellular solution was MgNFR (in mM): 120 KCl, 2.5 KCl, 2 MgCl2, 10 HEPES, pH adjusted to 7.3 with NaOH. ACh and memantine were added from stock solutions and applied through an application system, that allowed solution exchange with a time constant of ˜1s. Currents were filtered at 100 Hz and sampled at a frequency of 1 kHz. Dose-inhibition relations obtained from electrophysiological experiments were fitted to the empirical Hill equation, [formula]\nwhere Inorm is the normalized current, c is the blocker concentration, IC50 is the half-inhibitory concentration, and nH is the Hill coefficient. Data analysis and fitting was performed with IgorPro (Wavemetrics, Lake Oswego, Oreg.) on a Macintosh PowerPC. Unless stated otherwise, data are presented as mean±standard deviation.\nThe coding region of the rat α10 gene (GenBank Accession No. AF196344) was amplified from rat brain cDNA by PCR using 5′- and 3′-adapter-primers containing suitable restriction sites (GA-GACCCGGGAGCTCCACC, […] and […]). The amplified fragments were subcloned into the Xenopus oocyte expression vector pGEM-HE (gift of Dr. J. Tytgat), yielding pGEM-HE-nAChR-α10, verified by sequencing. Capped mRNAs for α9, α10 and SK2 were synthesized in vitro using the mMESSAGE mMACHINE kit (Ambion, Austin, Tex.). To detect α10 and α9 transcripts, PCR was performed using reverse transcribed RNA isolated from either OHCs (containing some Deiters cells) or supporting cells (Deiters and Hensen's cells) as template. Cells were collected from rat organs of Corti using suction glass micropipettes (diameter 10 μm). RNA was prepared from ˜100 cells of each fraction using the Qiagen RNeasy kit (Qiagen, Hilden, FRG) according to the manufacturers instructions. The oligonucleotides used as primers in the PCR reactions were chosen to span an intron in the human α9 and α10 genes to allow differentiation between products originating from cDNA and products originating from contaminating genomic DNA.\nIn (A) currents evoked by activation of α9/α10 nAChRs are dependent on external Ca^2+. Traces show subsequent applications of 100 μM ACh to the same oocyte in CaNFR (Ca^2+) and MgNFR (Mg^2+) at −80 mV. (B) Currents from homomeric α9 (upper trace) and heteromeric α9/α10 nAChRs (lower trace), recorded by application of 100 μM ACh in nominally Ca^2+-free external solution (MgNFR; −80 mV). (C) Current amplitudes from oocytes expressing α9 and α9/α10, recorded as in FIG. 3B (mean±standard error from 12 and 15 oocytes, respectively). (D) ACh-induced (100 μM) currents recorded from α9/α10 nAChRs in the presence of the memantine concentrations indicated. (E) Memantine dose-inhibition curves of α9/α10 nAChR. Peak currents were recorded as in (D) and normalized to the current amplitude after washout of the blocker. […] (F) I-v relations of α9/α10 nAChR recorded in the absence (black) and presence (gray trace) of 1 μM memantine in response to 2 s voltage ramps from −100 to +50 mV. […]"}, "[3]": {"molecular_target": "T4, α9/α10 heteromeric acetylcholine receptors (Rattus norvegicus, UniProt P43144+Q9JLB5)", "T4 construct": "The coding region of the rat α10 gene; expressed in transfected cells; host or cells: Xenopus laevis oocytes (mRNA injection)", "T4 sequence (P43144 26-479)": "as the sequence (P43144 26-479) above", "T4 sequence (Q9JLB5 25-447)": "as the sequence (Q9JLB5 25-447) above", "assay": "Experiment 6: voltage-clamp on alpha9/alpha10 acetylcholine receptors in Xenopus laevis oocytes", "assay_type": "cell-based", "conditions": "cells held at −30 mV, 100 μM acetylcholine; read-out: halfmaximal inhibition concentration", "experimental": "as §2, with “NaOH.” for “NaOH. For experiments in the absence of extracellular Ca^2+, the extracellular solution was MgNFR (in mM): 120 KCl, 2.5 KCl, 2 MgCl2, 10 HEPES, pH adjusted to 7.3 with NaOH.”\nFor further characterization of memantine treatment on the nAChR, the mRNA of alpha9/alpha10 subunits of the acetylcholine receptor were injected in oocytes of Xenopus laevis. […] In this experiment the polarization potential of the cells was measured after application of 100 μM acetylcholine in the presence or absence of memantine. […]"}, "[4]": {"molecular_target": "NMDA-type glutamate receptors", "conditions": "at −70 mV; cited from earlier work"}, "neuronal α4/β2 nAChRs": {"molecular_target": "neuronal α4/β2 nAChRs (Homo sapiens, UniProt P17787+P43681)", "sequence (P43681 29-627 limits assumed)": "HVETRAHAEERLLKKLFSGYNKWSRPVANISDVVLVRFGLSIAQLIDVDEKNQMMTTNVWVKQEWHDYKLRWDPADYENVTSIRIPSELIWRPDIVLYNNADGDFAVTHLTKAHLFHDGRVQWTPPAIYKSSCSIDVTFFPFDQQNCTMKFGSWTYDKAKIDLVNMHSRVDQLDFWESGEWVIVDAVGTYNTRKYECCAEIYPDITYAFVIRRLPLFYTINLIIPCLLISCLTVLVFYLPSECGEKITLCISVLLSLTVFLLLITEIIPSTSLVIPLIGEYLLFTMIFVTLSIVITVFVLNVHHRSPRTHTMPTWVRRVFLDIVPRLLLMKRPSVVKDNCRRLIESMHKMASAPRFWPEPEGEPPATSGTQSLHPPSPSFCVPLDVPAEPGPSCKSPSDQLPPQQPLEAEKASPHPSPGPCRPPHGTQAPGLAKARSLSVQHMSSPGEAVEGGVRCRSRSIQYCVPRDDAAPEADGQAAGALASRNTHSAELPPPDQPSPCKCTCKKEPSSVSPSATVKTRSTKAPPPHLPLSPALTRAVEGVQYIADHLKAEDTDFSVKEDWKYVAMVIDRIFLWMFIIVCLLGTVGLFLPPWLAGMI", "sequence (P17787 26-502)": "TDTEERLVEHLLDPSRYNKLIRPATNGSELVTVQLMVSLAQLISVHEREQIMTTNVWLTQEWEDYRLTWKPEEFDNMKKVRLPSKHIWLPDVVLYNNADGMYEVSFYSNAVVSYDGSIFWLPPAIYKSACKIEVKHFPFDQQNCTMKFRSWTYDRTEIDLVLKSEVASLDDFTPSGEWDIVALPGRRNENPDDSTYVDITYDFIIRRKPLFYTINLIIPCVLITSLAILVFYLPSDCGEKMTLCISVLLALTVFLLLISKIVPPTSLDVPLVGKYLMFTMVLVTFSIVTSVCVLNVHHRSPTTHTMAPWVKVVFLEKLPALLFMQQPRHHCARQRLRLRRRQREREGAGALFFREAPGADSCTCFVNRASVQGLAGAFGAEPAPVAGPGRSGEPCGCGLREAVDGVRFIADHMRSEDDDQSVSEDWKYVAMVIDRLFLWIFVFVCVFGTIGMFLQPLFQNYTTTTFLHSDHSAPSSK", "conditions": "at −100 mV; cited from earlier work"}},
  "note": "Where two headings read alike, the source gives them in different places.",
  "data": [
    {"smiles": "CC12CC3CC(C)(C1)CC(N)(C3)C2", "note": "[memantine, 3.5-dimethyl-1-adamantanamine]", "values": [
      {"measurement": "Hill coefficient of inhibition of IPSCs", "setting": "[1]", "result": 2},
      {"measurement": "fold higher concentrations required for inhibition of IPSCs than for inhibition of SK2 currents in the oocyte system", "setting": "[1]; IPSCs in OHCs vs SK2 currents in oocytes", "result": 10, "unit": "fold"},
      {"measurement": "IC50", "setting": "[1]; Rattus norvegicus, iPSC, read-out: IC50 for inhibition of IPSC in OHCs", "result": "~16600", "unit": "nM"},
      {"measurement": "Hill coefficient nH of inhibition of the nAChR-induced SK2 current", "setting": "[2]", "result": 1.1},
      {"measurement": "IC50", "setting": "[2]; peak outward currents, read-out: IC50 of inhibition of the nAChR-induced SK2 current", "result": 700, "unit": "nM"},
      {"measurement": "Hill coefficient nH of block of nAChR currents in OHCs", "setting": "nAChR currents in OHCs", "result": 0.9},
      {"measurement": "IC50", "setting": "nAChR currents in OHCs; steady-state", "result": 1100, "unit": "nM"},
      {"measurement": "Increase of memantine block from +50 mV to −80 mV (factor)", "setting": "α9/α10 nAChR; 1 μM memantine, voltage ramps, MgNFR", "result": 1.6},
      {"measurement": "IC50", "setting": "α9/α10 nAChR; CaNFR (2 mM Ca2+), 100 μM ACh, peak currents, read-out: IC50 of block of α9/α10 nAChR current", "result": 1300, "unit": "nM"},
      {"measurement": "Hill coefficient nH of block of α9/α10 nAChR current", "setting": "α9/α10 nAChR; CaNFR, 100 μM ACh", "result": 1.0},
      {"measurement": "IC50", "setting": "α9/α10 nAChR; MgNFR (nominally Ca2+-free), 100 μM ACh, peak currents, read-out: IC50 of block of α9/α10 nAChR current", "result": 1600, "unit": "nM"},
      {"measurement": "Hill coefficient nH of block of α9/α10 nAChR current", "setting": "α9/α10 nAChR; MgNFR, 100 μM ACh", "result": 1.2},
      {"measurement": "IC50", "setting": "α9/α10 nAChR; summary of FIGS. 3E, 5B, read-out: affinity for memantine of α9/α10 receptors", "result": "~1000", "unit": "nM"},
      {"measurement": "IC50", "setting": "[3]", "result": "~1000", "unit": "nM"},
      {"measurement": "IC50", "setting": "[4]", "result": "~1000", "unit": "nM"},
      {"measurement": "IC50", "setting": "neuronal α4/β2 nAChRs", "result": 7000, "unit": "nM"}
    ]}
  ]
}
